# Results published in patent US20200054058A1, “Sweetness and Taste Improvement of Steviol Glycoside and Mogroside Sweeteners with Dihydrochalcones” (The Coca-Cola Company, priority 2017, published 2020).
# Like-named read-outs stand apart in the source and are kept apart here.
# Columns and labels:
# panelist [1] = conditions: Isomer of Siamenoside I in acidic water (100 ppm, Table 4); one panelist
# Source text: The panelist was asked to evaluate the sweetness of the samples against the 3%, 5%, and 8% sucrose solutions and describe the taste profiles.
# panelists [2] = conditions: 250 ppm 1,6-α-isomer of Siamenoside I in acidic water; one panelist; slightly less
# panelists [3] = test: Sensory tasting of mock beverages with Reb-J, Reb-N, Reb-O, Reb-M with and without CC-00800 against sucrose references (Example 6); type: in vivo, human; conditions: for enhancement of overall sweetness by hesperitin dihydrochalcone: 10 ppm hesperitin dihydrochalcone added to the steviol glycoside beverage, all panelists; for sweetness and bitterness rank among Reb-J, Reb-N, Reb-O, Reb-M: mock beverages without hesperitin dihydrochalcone
# Experimental: Steviol glycosides, namely Reb-J, Reb-N, Reb-M, Reb-O with 95% purity were purchased from commercial sources.
# A 6% stock solution of CC-00800 (hesperitin dihydrochalcone, “HDC”) was made in propylene glycol (PG) food grade and used in subsequent experiments.
# Acidified mock beverages (100 grams) were made using the following ingredients (in grams) in order:
# All ingredients were dissolved in carbon-filtered water and the resulting beverage was filled in 300 ml glass bottles and immediately refrigerated (4° C.). Beverages were bench tasted when cold.
# Four experienced panelists bench tasted the beverages blindly. Each panelist was given warm bottled water and unsalted crackers to eat and rinse the palate between samples. A maximum of 3 samples was tasted at each session to avoid fatigue.
# The first session consisted of tasting beverages without hesperitin dihydrochalcone.
# The second session consisted of tasting the beverages with hesperitin dihydrochalcone added (10 ppm). All panelists agreed that hesperitin dihydrochalcone enhanced the overall sweetness for about 1 Brix for Reb-J, Reb-O, and Reb-N, while Reb-M was enhanced with about 2.5 Brix.
# panelists [4] = test: Taste evaluation of NHDC with rebaudioside M in acidic water against sucrose solutions (Example 2); type: in vivo, human; conditions: both panelists
# Source text: First, the panelists assessed the sweetness of 5 ppm of NHDC in acidic water against 1.5% sucrose solution in acidic water.
# Next, panelists compared the sweetness profile of (i) a sample containing 150 ppm rebaudioside M and (ii) a sample containing 5 ppm NHDC and 150 rebaudioside M to the 6%, 8%, and 10% sucrose solutions.
# panelist [5] = test: Taste evaluation of phloretin with rebaudioside M in acidic water against sucrose solutions (Example 1); type: in vivo, human; conditions: one panelist
# Source text: First, the panelist assessed the sweetness of 40 ppm of phloretin in acidic water against a 1.5% sucrose solution in acidic water. 40 ppm of phloretin was reported to have a sweetness less than the sweetness of the 1.5% sucrose solution.
# Next, the panelist compared the sweetness profile of (i) the sample containing 150 ppm rebaudioside M in acidic water and (ii) the sample containing 40 ppm phloretin and 150 ppm rebaudioside M in acidic water to the 5%, 7%, 8%, 9%, and 10% sucrose solutions.
# panelists [6] = test: Taste evaluation of hesperetin dihydrochalcone with rebaudioside M in acidic water against sucrose solutions (Example 3); type: in vivo, human; conditions: 150 ppm rebaudioside M in acidic water; both panelists; slightly less sweet
# Source text: Panelists compared the sweetness profile of (i) a sample containing 150 ppm rebaudioside M and (ii) a sample containing 40 ppm hesperetin dihydrochalcone and 150 ppm rebaudioside M to the 4%, 6%, 8%, and 10% sucrose solutions.
# panelists [7] = test: Bench tasting of acidified mock beverages, CC-00800 + Reb-M (Example 5); type: in vivo, human; conditions: 472 ppm Reb-M, control mock beverage (Bev. #7); five panelists
# Experimental: Rebaudioside M was acquired from Pure Circle (86% Reb-M, 9% Reb-D, 0.8% Reb-A, plus other steviol glycosides in minor amount).
# A 6% stock solution of Hesperetin Dihydrochalcone (CC-00800) was made in propylene glycol (PG) food grade and used in subsequent experiments.
# Acidified mock beverages (300 grams) were made using the following ingredients (in grams) in order:
# All ingredients were dissolved in carbon-filtered water and the resulting beverage was filled in 300 ml glass bottles and immediately refrigerated (4° C.). Beverages were bench tasted next morning.
# Five experienced panelists bench tasted the beverages blindly. Each panelist was given warm bottled water and unsalted crackers to eat and rinse the palate between samples. A maximum of 3 samples was tasted at each session to avoid fatigue.
# panelists [8] = type: in vivo, human; conditions: 250 ppm Rebaudioside M in acidic water; for sweetness in sucrose equivalents: slightly less sweet
# panelists [9] = test: Taste evaluation of hesperetin dihydrochalcone with siamenoside I in acidic water against sucrose solutions (Example 4); type: in vivo, human; conditions: 150 ppm siamenoside I in acidic water; both panelists; slightly less sweet
# Source text: Panelists compared the sweetness profile of (i) a sample containing 150 ppm siamenoside I and (ii) a sample containing 40 ppm hesperetin dihydrochalcone and 150 ppm siamenoside I to the 4%, 6%, 8%, and 10% sucrose solutions.
# panelists [10] = conditions: 250 ppm Siamenoside I in acidic water; one panelist
# [11] = 10 ppm hesperitin dihydrochalcone added
# [12] = 150 ppm rebaudioside M in acidic water
smiles,measurement,setting,value
"C[C@H](CC[C@@H](O[C@@H]1O[C@H](CO[C@H]2O[C@H](CO)[C@@H](O)[C@H](O)[C@H]2O)[C@@H](O)[C@H](O)[C@H]1O[C@@H]1O[C@H](CO)[C@@H](O)[C@H](O)[C@H]1O)C(C)(C)O)[C@H]1CC[C@@]2(C)[C@@H]3CC=C4[C@@H](CC[C@H](O[C@@H]5O[C@H](CO)[C@@H](O)[C@H](O)[C@H]5O)C4(C)C)[C@]3(C)[C@H](O)C[C@]12C [1,6-α-isomer of Siamenoside I, mogro-3-O-[β-D-glucopyranoside]-24-O-{[β-D-glucopyranosyl-(1→2)]-[α-D-glucopyranosyl-(1→6)]-β-O-D-glucopyranoside}]",sweetness against sucrose solutions,panelist [1],~4 % sucrose
same,sweetness in sucrose equivalents,panelists [2],less than 7 % sucrose
"COc1ccc(CCC(=O)c2c(O)cc(O)cc2O)cc1O [Hesperitin dihydrochalcone, 3-(3-Hydroxy-4-methoxyphenyl)-1-(2,4,6-trihydroxyphenyl)-1-propanone]",effect on bitterness and other off-notes of steviol glycoside beverages,panelists [3]; [11],reduced significantly
same,effect on mouth feel of steviol glycoside beverages,panelists [3]; [11],improved
"COc1ccc(CCC(=O)c2c(O)cc(O[C@@H]3O[C@H](CO)[C@@H](O)[C@H](O)[C@H]3O[C@@H]3O[C@@H](C)[C@H](O)[C@@H](O)[C@H]3O)cc2O)cc1O [NHDC, 1-[4-[[(2S,3R,4S,5S,6R)-4,5-Dihydroxy-6-(hydroxymethyl)-3-[[(2S,3R,4R,5R,6S)-3,4,5-trihydroxy-6-methyl-2-tetrahydropyranyl]oxy]-2-tetrahydropyranyl]oxy]-2,6-dihydroxyphenyl]-3-(3-hydroxy-4-methoxyphenyl)propan-1-one]",sweetness against sucrose solution,panelists [4]; 5 ppm NHDC in acidic water,< 1.5 % sucrose
"C=C1C[C@@]23CC[C@H]4[C@@](C)(CCC[C@@]4(C)C(=O)O[C@@H]4O[C@H](CO)[C@@H](O)[C@H](O)[C@H]4O[C@@H]4O[C@@H](C)[C@H](O)[C@@H](O)[C@H]4O)[C@@H]2CC[C@]1(O[C@@H]1O[C@H](CO)[C@@H](O)[C@H](O[C@@H]2O[C@H](CO)[C@@H](O)[C@H](O)[C@H]2O)[C@H]1O[C@@H]1O[C@H](CO)[C@@H](O)[C@H](O)[C@H]1O)C3 [Reb-J, rebaudioside J]",enhancement of overall sweetness by hesperitin dihydrochalcone,panelists [3],about 1 Brix
same,"sweetness and bitterness rank among Reb-J, Reb-N, Reb-O, Reb-M",panelists [3],least sweet and most bitter
"C=C1C[C@@]23CC[C@H]4[C@@](C)(CCC[C@@]4(C)C(=O)O[C@@H]4O[C@H](CO)[C@@H](O)[C@H](O[C@@H]5O[C@H](CO)[C@@H](O)[C@H](O)[C@H]5O)[C@H]4O[C@@H]4O[C@@H](C)[C@H](O)[C@@H](O)[C@H]4O)[C@@H]2CC[C@]1(O[C@@H]1O[C@H](CO)[C@@H](O)[C@H](O[C@@H]2O[C@H](CO)[C@@H](O)[C@H](O)[C@H]2O)[C@H]1O[C@@H]1O[C@H](CO)[C@@H](O)[C@H](O)[C@H]1O)C3 [Reb-N, rebaudioside N]",enhancement of overall sweetness by hesperitin dihydrochalcone,panelists [3],about 1 Brix
"C=C1C[C@@]23CC[C@H]4[C@@](C)(CCC[C@@]4(C)C(=O)O[C@@H]4O[C@H](CO)[C@@H](O)[C@H](O[C@@H]5O[C@H](CO)[C@@H](O)[C@H](O)[C@H]5O)[C@H]4O[C@@H]4O[C@@H](C)[C@H](O)[C@@H](O[C@@H]5O[C@H](CO)[C@@H](O)[C@H](O)[C@H]5O)[C@H]4O)[C@@H]2CC[C@]1(O[C@@H]1O[C@H](CO)[C@@H](O)[C@H](O[C@@H]2O[C@H](CO)[C@@H](O)[C@H](O)[C@H]2O)[C@H]1O[C@@H]1O[C@H](CO)[C@@H](O)[C@H](O)[C@H]1O)C3 [Reb-O, rebaudioside O]",enhancement of overall sweetness by hesperitin dihydrochalcone,panelists [3],about 1 Brix
"O=C(CCc1ccc(O)cc1)c1c(O)cc(O)cc1O [phloretin, 3-(4-hydroxyphenyl)-1-(2,4,6-trihydroxyphenyl)propan-1-one]",sweetness against sucrose solution,panelist [5]; 40 ppm phloretin in acidic water,< 1.5 % sucrose
C=C1C[C@@]23CC[C@H]4[C@@](C)(CCC[C@@]4(C)C(=O)O[C@@H]4O[C@H](CO)[C@@H](O)[C@H](O[C@@H]5O[C@H](CO)[C@@H](O)[C@H](O)[C@H]5O)[C@H]4O[C@@H]4O[C@H](CO)[C@@H](O)[C@H](O)[C@H]4O)[C@@H]2CC[C@]1(O[C@@H]1O[C@H](CO)[C@@H](O)[C@H](O[C@@H]2O[C@H](CO)[C@@H](O)[C@H](O)[C@H]2O)[C@H]1O[C@@H]1O[C@H](CO)[C@@H](O)[C@H](O)[C@H]1O)C3 [rebaudioside M],sweetness against sucrose solutions,panelist [5]; [12],6 % sucrose
same,sweetness against sucrose solutions,panelists [4]; [12],6 % sucrose
same,sweetness against sucrose solutions,panelists [6],< 6 % sucrose
same,aftertaste of control,panelists [7],"sweet lingering, licorice and bitter aftertaste observed in the control"
same,enhancement of overall sweetness by hesperitin dihydrochalcone,panelists [3],about 2.5 Brix
same,"sweetness and bitterness rank among Reb-J, Reb-N, Reb-O, Reb-M",panelists [3],sweetest
same,sweetness and mouthfeel compared with sample also containing Hesperetin dihydrochalcone-4′-beta-D-glucoside,panelists [8]; both panelists,less sweet and less mouthfeel
same,sweetness in sucrose equivalents,panelists [8]; one panelist,< 7 % sucrose
same,sweetness in sucrose equivalents,panelists [8]; the other panelist,< 8 % sucrose
C[C@H](CC[C@@H](O[C@@H]1O[C@H](CO[C@@H]2O[C@H](CO)[C@@H](O)[C@H](O)[C@H]2O)[C@@H](O)[C@H](O)[C@H]1O[C@@H]1O[C@H](CO)[C@@H](O)[C@H](O)[C@H]1O)C(C)(C)O)[C@H]1CC[C@@]2(C)[C@@H]3CC=C4[C@@H](CC[C@H](O[C@@H]5O[C@H](CO)[C@@H](O)[C@H](O)[C@H]5O)C4(C)C)[C@]3(C)[C@H](O)C[C@]12C [siamenoside I],sweetness against sucrose solutions,panelists [9],< 6 % sucrose
same,sweetness in sucrose equivalents,panelists [10],~6 % sucrose
